These results are taken from patent publication US20170368018A1, “USE OF ELLAGIC ACID DIHYDRATE IN PHARMACEUTICAL FORMULATIONS TO REGULATE BLOOD GLUCOSE LEVELS” (HALO LIFE SCIENCE, LLC, priority 2014, published 2017).

Data set [1] can be described thus: Estimated saturation in 100% DMSO. Type of data set: physicochemical. The procedure:
General Procedure. For Examples 2 through 7, all test compounds of interest were initially dissolved in 100% DMSO. Estimated saturation occurred at approximately 4 mM for ellagic acid dihydrate. The saturated solution was diluted 1:10 in 1× PBS; creating a 100× stock solution of 400 μM ellagic acid dihydrate. Working concentrations (1×), 4 μM, and more dilute concentrations of ellagic acid dihydrate were created by 1:10 dilutions into 0.1% DMSO. The resulting six dilutions ranged from 4 μM to 0.04 nM. Dose curves were analyzed using either Harmony software on the Operetta (Perkin Elmer) or Excel (Microsoft) for flow cytometry, which was performed on a BD Accuri (BD Biosciences).

Data set [2] has as its system GLUT4-GFP in mouse myoblast C2C12 cells. Briefly: Localization of glucose transporter GLUT4-GFP, time-lapse confocal microscopy. Type of data set: cell-based. As to conditions: C2C12, 4000 nM. The procedure:
Induction of glucose transporter, GLUT-4, in ellagic acid dihydrate treated cell cultures was studied. Cellular assays were performed using mouse myoblast C2C12 cells. The cells were infected with a fusion glucose transporter 4 green fluorescent protein (GLUT4-GFP). This protein allows the visualization of GLUT4 by imaging the GFP under fluorescent time-lapse microscopy. Frames were compiled to produce time-lapse images of cellular changes with no treatment or treatment with insulin. The localization of glucose transporter (GLUT4-GFP) was performed in final incubation volume of 505 μL, consisting of 500 μL of Hank's Buffer (Invitrogen) and 5 μl of tested compounds. Insulin was used as positive controls and vehicle (0.1% DMSO) as the negative control. All test compounds were prepared in 10% DMSO and diluted 1:100 for a final concentration of 0.1% DMSO (vehicle). The cells were rinsed in Hank's Buffer thrice and then incubated in Hank's Buffer at 37° C. for one hour. The test compounds were added (ellagic acid dihydrate, insulin, or vehicle) and the cells were imaged using laser-confocal microscopy (Leica TCS SP5 X) with FITC fluorescent filters to determine changes in GLUT4-GFP localization. Time-lapse images (TIF) were collected and post-processed using Image-J (NIH) for video construction.

The test system of another data set is MEF cells. Briefly: Glucose uptake, 2-NBDG labeling, high-content imaging (Operetta), MEFs. It is filed as cell-based, mouse. The procedure: Increased glucose uptake was indicated as increasing signal of 2-NBDG ([…]) in cells. Glucose uptake assays were carried out in a final incubation volume of 50 μl consisting of, 2-NBDG), (100 μM) in 1× Phosphate Buffered Saline w/Ca+, Mg+ (PBS++). The same buffer was used for washing cells. Insulin was used as a positive control. All testing compounds were prepared in 10% DMSO and diluted 1:100 for a final concentration of 0.1% DMSO (vehicle). Cells were culture to 70-90% confluence and then washed twice with PBS++. Cells were incubated for 30 minutes at 37° C. in PBS++. Nuclear stain, HCS CellMask stain (blue, Invitrogen), and/or testing compounds (ellagic acid dihydrate, insulin, or vehicle) were added. Cells were incubated for 30 min at 37° C. Cells were washed twice with PBS++and incubated with 2-NBDG for 10 minutes. Cells were washed thrice with PBS++and then imaged in PBS++. Alternatively, the final PBS wash was removed and cells were incubated with Accutase (Invitrogen) for 10 min at 37° C., neutralized with 10% FBS in 1× PBS, and analyzed by flow cytometry. An additional experiment was performed to measure glucose uptake in C2C12 cells exposed to metformin, insulin and ellagic acid dihydrate 2 (batch 2). FIG. 5C. Glucose uptake in ellagic acid dihydrate treated cell culture was measured and compared to glucose uptake under insulin or ellagic acid treatment. […] Flow cytometry results were run in triplicate with 1000 cells per batch.

The test system of data set [3] is p44/42 MAPK / Phos p44/42 MAPK in C2C12 cells. Briefly: p44/42 MAPK:phos p44/42 MAPK ratio by immunocytochemistry, high-content imaging. It is filed as cell-based, mouse. As to conditions: C2C12, treated 30 minutes, 400 nM, 0.04 nM, FIG. 9. The procedure:
Stimulation of AKT pathways and MAPK pathways in ellagic acid dihydrate, metformin, and insulin treated cell cultures was performed. Insulin stimulates glucose uptake into cells by increasing GLUT4 activation, and AKT, specifically phos-AKT, signaling alters GLUT4 translocation. […] Cellular assays were performed using mouse myoblast C2C12 cells. Relative protein levels of AKT:phos AKT and p44/42 MAPK:phos p44/42 MAPK were determined.
Serum starved cells (1 hr) were treated for 30 minutes with each of the tested compounds. Ratios of phosphorylated to non-phosphorylated proteins were determined using immunocytochemistry labeling (anti-AKT, anti-Phos AKT; or anti-p44/42 MAPK, anti-Phos p44/42 MAPK) on a high-content imaging system (Operetta, Perkin Elmer) using the fluorescent signal of anti-rabbit Alexa 647. Increased phosphorylation is indicated as decrease in signal of AKT:Phos AKT ratio (log2 scale) and p44/42 MAPK:Phos p44/42 MAPK ratio (log2 scale) relative to vehicle treated cells.

Turning to `O.O.O=c1oc2c(O)c(O)cc3c(=O)oc4c(O)c(O)cc1c4c23` [ellagic acid dihydrate], in data set [1], the Estimated saturation result is “approximately 4 mM”. In addition, in data set [2], the “GLUT4-GFP around the cell nucleus” value is on record as “decrease in nuclear GLUT4-GFP”; the “ruffling of filopodia at the surface of the cell” value was “rapid ruffling of filopodia”; the “time course of GLUT4-GFP and membrane changes compared with insulin” value is listed as “slightly delayed”. In addition, in the data set with MEF cells, the “dose effect for increasing glucose uptake” value is “showed a dose effect” and the “glucose uptake (signal of 2-NBDG) in comparison to vehicle” value is “showed an increase in glucose uptake”. Besides, the “glucose uptake (2-NBDG signal) relative to vehicle treated or Insulin treated cells” value with MEF cells (data not shown) is reported as “significantly greater”. Further, in data set [3], the “p44/42 MAPK:Phos p44/42 MAPK ratio relative to vehicle treated cells” value is “increase in p44/42 MAPK”.
